# Source: PubChem BioAssay AID1117287 (Broad Institute, 2014)
# The source made the active and inactive calls.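 Rule for the calls: active = inhibitor whose half-maximal potency stays within twice the top tested dose in every replicate test; inconclusive = mixed calls across tests, weak flat response, or poor curve fit; inactive = all tests inactive, including rising signal.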
# Target: Endoplasmic reticulum aminopeptidase 1 (Homo sapiens) (UniProt Q9NZ08)
# Test: ERAP1 Leu-AMC hydrolysis inhibition – biochemical, fluorescence, dry powder, set 2, dose response (AID 1117287)
# Settings: 60 min
# Chain of Endoplasmic reticulum aminopeptidase 1 (Homo sapiens) (Q9NZ08 whole entry, looked up): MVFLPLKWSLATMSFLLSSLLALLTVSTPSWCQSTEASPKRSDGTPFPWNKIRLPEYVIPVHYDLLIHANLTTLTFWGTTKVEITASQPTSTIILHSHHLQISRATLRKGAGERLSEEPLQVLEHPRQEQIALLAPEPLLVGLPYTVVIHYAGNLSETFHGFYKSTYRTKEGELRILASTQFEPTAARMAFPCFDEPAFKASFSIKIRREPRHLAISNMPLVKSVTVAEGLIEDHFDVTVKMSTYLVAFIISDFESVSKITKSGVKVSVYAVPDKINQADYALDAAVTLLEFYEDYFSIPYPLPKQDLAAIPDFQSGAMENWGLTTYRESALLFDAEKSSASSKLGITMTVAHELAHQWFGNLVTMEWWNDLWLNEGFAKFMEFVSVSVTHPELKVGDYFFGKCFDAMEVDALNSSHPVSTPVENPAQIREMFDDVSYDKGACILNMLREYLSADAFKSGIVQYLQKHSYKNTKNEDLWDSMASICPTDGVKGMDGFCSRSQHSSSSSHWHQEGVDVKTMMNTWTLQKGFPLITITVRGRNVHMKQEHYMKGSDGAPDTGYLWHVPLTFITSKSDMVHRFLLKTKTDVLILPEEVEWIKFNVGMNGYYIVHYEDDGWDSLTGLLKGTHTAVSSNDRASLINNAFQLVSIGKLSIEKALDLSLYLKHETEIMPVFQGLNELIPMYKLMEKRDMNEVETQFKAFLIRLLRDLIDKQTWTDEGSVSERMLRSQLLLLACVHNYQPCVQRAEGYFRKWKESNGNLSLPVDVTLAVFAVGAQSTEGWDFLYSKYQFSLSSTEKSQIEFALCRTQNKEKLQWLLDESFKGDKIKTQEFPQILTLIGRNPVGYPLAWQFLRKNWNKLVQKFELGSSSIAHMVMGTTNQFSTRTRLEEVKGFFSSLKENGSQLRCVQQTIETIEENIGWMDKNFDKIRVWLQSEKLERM
SMILES,"activity change, negative = inhibition (at 50 µM (top of the series))",also measured
COc1ccc(C(=O)O)cc1S(=O)(=O)Nc1cc(C(F)(F)F)ccc1N1CCCCC1,inactive,–
COc1ccc(C(=O)Nc2cccc(C(F)(F)F)c2)cc1S(=O)(=O)O,inactive,–
COc1ccc(C(=O)O)cc1S(=O)(=O)Nc1cc(C(F)(F)F)ccc1N1CCN(C(C)=O)CC1,inactive,–
Cc1ccc(C(=O)O)cc1S(=O)(=O)Nc1cc(C(F)(F)F)ccc1N1CCCCC1,inactive,–
COc1ccc(C2=NN(c3ccc(C(=O)O)cc3)C(c3ccc(OC)c(OC)c3)C2)cc1 (stereo not drawn),–,"activity change, negative = inhibition (at 26 µM (top of the series), above what the read-out allows, likely interference): inactive"
COc1ccc(C(=O)O)cc1S(=O)(=O)Nc1cccc(N2CCCCC2)c1C(F)(F)F,–,AC50: > 100 µM (inactive)
COc1ccc(C(=O)O)cc1S(=O)(=O)Nc1ccc(N2CCCCC2)cc1C(F)(F)F,–,AC50: > 100 µM (inactive)
Cc1ccc(S(=O)(=O)Nc2cc(C(F)(F)F)ccc2N2CCCCC2)cc1C(=O)O,inactive,–
COc1ccc(C(=O)O)cc1S(=O)(=O)Nc1cc(C(F)(F)F)ccc1N(C)C,inactive,–
O=C(O)c1cc(F)cc(S(=O)(=O)Nc2cc(C(F)(F)F)ccc2N2CCCCC2)c1,inactive,–
COc1ccc(C(=O)O)cc1S(=O)(=O)N1CCN(c2ccc(C(F)(F)F)cc2N)CC1,–,AC50: > 100 µM (inactive)
O=S(=O)(O)c1ccc(N2N=C(c3ccccc3)CC2c2ccccc2)cc1 (stereo not drawn),–,"activity change, negative = inhibition (at 26 µM (top of the series)): inactive"
COc1ccc(C(=O)O)cc1S(=O)(=O)Nc1cc(C(F)(F)F)ccc1N1CCOCC1,inactive,–
